Experimental data taken from ChEMBL document CHEMBL1201862, “PubChem BioAssay data set” (2004).
Activity calls are given as the source filed them.

Legend:
[1] = molecular target: Dual specificity protein phosphatase 3 (Homo sapiens, UniProt P51452); assay: SAR VHR1 Fluorescent Assay for In Vitro dose response studies Set 3. [Related pubchem assays (depositor defined):AID1654, AID1661, AID1878]; assay type: functional
Jurkat [2] = assay: SAR Analysis of small molecule inhibitors of T-cell specific antigen receptor-induced NF-kB activation in a Jurkat cell line using a luminescence assay - Set 2. [Related pubchem assays (depositor defined):AID435003, AID435012, AID465]; assay type: functional, cell-based; conditions: Homo sapiens
HEK293 [3] = assay: HEK293T cell viability loss, resazurin readout – resazurin fluorescence, cytotoxicity control for NF-kB activator project, SAR follow-up (AID 493251); assay type: functional, cell-based; conditions: Homo sapiens
HEK293 [4] = assay: SAR Analysis of small molecule inhibitors of T-cell specific antigen receptor-induced NF-kB activation in a HEK-293T cell line using a luminescence assay - Set 2. [Related pubchem assays (depositor defined):AID435003, AID435012, AID489026]; assay type: functional, cell-based; conditions: Homo sapiens
[5] = molecular target: T1, Short transient receptor potential channel 4 (Mus musculus, UniProt Q9QUQ5); assay: calcium entry via TRPC4 opening agents – cell-based, HEK293 TRPC4/mu-opioid, Fluo-4 calcium, dose response (AID 434937); assay type: functional
T1 sequence (Q9QUQ5 whole entry): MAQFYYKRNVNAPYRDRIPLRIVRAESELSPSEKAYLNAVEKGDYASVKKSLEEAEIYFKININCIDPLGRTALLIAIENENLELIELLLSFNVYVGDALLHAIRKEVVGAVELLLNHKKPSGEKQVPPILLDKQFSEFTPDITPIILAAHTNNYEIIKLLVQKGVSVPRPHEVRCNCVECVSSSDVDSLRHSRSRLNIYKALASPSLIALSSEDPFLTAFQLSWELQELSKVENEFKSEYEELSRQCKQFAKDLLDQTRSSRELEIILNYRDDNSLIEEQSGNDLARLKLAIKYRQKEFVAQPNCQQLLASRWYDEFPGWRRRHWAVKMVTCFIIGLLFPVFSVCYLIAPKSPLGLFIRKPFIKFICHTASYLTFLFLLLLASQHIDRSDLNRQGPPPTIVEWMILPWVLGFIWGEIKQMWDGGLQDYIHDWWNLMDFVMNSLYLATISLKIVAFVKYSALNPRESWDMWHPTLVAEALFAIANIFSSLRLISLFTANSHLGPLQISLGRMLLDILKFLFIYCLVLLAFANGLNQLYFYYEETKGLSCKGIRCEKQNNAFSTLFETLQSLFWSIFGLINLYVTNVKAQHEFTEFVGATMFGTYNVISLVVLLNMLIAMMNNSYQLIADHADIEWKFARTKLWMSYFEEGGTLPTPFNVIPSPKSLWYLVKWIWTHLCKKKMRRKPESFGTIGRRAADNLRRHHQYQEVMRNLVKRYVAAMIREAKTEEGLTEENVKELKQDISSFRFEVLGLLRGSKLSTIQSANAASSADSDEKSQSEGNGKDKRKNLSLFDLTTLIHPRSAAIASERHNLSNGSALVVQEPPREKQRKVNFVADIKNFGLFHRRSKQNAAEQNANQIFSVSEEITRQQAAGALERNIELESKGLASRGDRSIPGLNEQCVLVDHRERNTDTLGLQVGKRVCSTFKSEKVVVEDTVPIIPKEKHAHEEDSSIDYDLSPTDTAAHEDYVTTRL

[6] = molecular target: Delta-type opioid receptor (Homo sapiens, UniProt P41143); assay: Counterscreen for agonists of heterodimerization of the mu 1 (OPRM1) and delta 1 (OPRD1) opioid receptors: Luminescence-based cell-based high throughput dose response assay to identify agonists of OPRD1 homodimerization. [Related pubchem assays (depositor defined):AID504326, AID504355, AID504692, AID504904, AID504905]; assay type: functional
Mu-type opioid receptor = Mu-type opioid receptor (Homo sapiens, UniProt P35372); assay: Counterscreen for agonists of heterodimerization of the mu 1 (OPRM1) and delta 1 (OPRD1) opioid receptors: Luminescence-based cell-based high throughput dose response assay to identify agonists of OPRM1 homodimerization.; assay type: functional;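 further: U2OS cells expressing OPRM1 and beta-arrestin as split beta-galactosidase partners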
[7] = molecular target: 5-hydroxytryptamine receptor 5A (Homo sapiens, UniProt P47898); assay: Counterscreen for agonists of OPRM1-OPRD1 heterodimerization: luminescence-based cell-based high throughput dose response assay to identify agonists of 5-hydroxytryptamine (serotonin) 5A receptor (HTR5A). [Related pubchem assays (depositor defined):AID504326, AID504355, AID504692, AID504904, AID504905]; assay type: functional
[8] = Luminescence Cell-Based Dose Response HTS to Identify Inhibitors of 5'UTR Stem-Loop Driven Prion Protein mRNA Translation in H4 Neuroglioblastoma Cells. [Related pubchem assays: 1827 (Project Summary), 1813 (Primary HTS)]; assay type: functional
[9] = luciferase reporter signal reduction – luminescence, H4-C neuroglioblastoma cells, dose response (AID 2458); assay type: functional, cell-based;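 further: H4 neuroglioblastoma cells stably carrying a luciferase reporter gene fusion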
cells [10] = assay type: functional, cell-based
[11] = luciferase reporter signal suppression in cells – H4 neuroglioma cells, luminescence, dose response (AID 1990); assay type: functional, cell-based
[12] = restored growth of temperature-sensitive Burl-1 yeast – whole organism, S. cerevisiae, Burl-1 ts mutant, luminescence, counter-screen for SUMOylation pathway inhibitor project, dose response (AID 463199); assay type: functional
[13] = alpha-synuclein stem-loop translation blockers – luminescence, H4 neuroglioblastoma cells, dose confirmation, confirmation (AID 2454); assay type: functional, cell-based;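 further: H4 neuroglioblastoma cells carrying an alpha-synuclein 5'UTR luciferase reporter; potency for inhibition of the luciferase signal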
[14] = alpha-synuclein stem-loop luciferase translation blockers – H4 neuroglioma cells, luminescence, confirmation (AID 1988); assay type: functional, cell-based
HEK293 [15] = assay: SAR Analysis of small molecule inhibitors of B-cell specific antigen receptor-induced NF-kB activation in a HEK-293T cell line using a luminescence assay - Set 2. [Related pubchem assays (depositor defined):AID435022, AID435025, AID489021]; assay type: functional, cell-based; conditions: Homo sapiens
Jurkat [16] = assay: SAR Analysis of small molecule inhibitors of […] specific antigen receptor-induced NF-kB activation in a Jurkat cell line using a luminescence assay - Set 3. [Related pubchem assays (depositor defined):AID435022, AID435025, AID465]; assay type: functional, cell-based; conditions: Homo sapiens
cells [17] = assay type: functional, cell-based; remark: listed apart in the source
[18] = molecular target: T2, Trace amine-associated receptor 1 (Homo sapiens, UniProt Q96RJ0); assay: Counterscreen for agonists of the human trace amine associated receptor 1 (hTAAR1): Fluorescence-based cell-based high throughput dose response assay to identify hTAAR1 agonist that also desensitize TAAR1 receptor response.; assay type: functional
T2 sequence (Q96RJ0 whole entry): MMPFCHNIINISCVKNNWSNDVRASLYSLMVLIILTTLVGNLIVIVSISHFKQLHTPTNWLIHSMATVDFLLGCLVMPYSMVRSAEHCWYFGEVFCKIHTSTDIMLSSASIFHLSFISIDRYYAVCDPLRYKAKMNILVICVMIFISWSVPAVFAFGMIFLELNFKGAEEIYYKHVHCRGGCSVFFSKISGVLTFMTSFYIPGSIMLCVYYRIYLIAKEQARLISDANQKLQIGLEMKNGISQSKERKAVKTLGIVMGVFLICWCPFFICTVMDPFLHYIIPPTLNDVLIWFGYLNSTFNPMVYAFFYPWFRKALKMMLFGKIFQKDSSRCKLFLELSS

Vero = assay: cells; assay type: functional, cell-based; conditions: Chlorocebus sabaeus
[19] = molecular target: T2, Trace amine-associated receptor 1; assay: Fluorescence-based cell-based high throughput dose response assay to identify agonists of the human trace amine associated receptor 1 (TAAR1).; assay type: functional
cells [20] = assay type: functional, cell-based; remark: listed apart in the source
[21] = Luminescence Cell-Based Dose Retest to Confirm Inhibitors of Cancer Stem Cells. [Related pubchem assays (depositor defined):AID2717, AID2721]; assay type: functional; conditions: Homo sapiens
[22] = molecular target: T3, Mannose-6-phosphate isomerase (Homo sapiens, UniProt P34949); assay: MPI inhibition at elevated mannose 6-phosphate – biochemical, fluorescence intensity, high mannose 6-phosphate, primary screen (AID 1220)
T3 sequence (P34949 whole entry): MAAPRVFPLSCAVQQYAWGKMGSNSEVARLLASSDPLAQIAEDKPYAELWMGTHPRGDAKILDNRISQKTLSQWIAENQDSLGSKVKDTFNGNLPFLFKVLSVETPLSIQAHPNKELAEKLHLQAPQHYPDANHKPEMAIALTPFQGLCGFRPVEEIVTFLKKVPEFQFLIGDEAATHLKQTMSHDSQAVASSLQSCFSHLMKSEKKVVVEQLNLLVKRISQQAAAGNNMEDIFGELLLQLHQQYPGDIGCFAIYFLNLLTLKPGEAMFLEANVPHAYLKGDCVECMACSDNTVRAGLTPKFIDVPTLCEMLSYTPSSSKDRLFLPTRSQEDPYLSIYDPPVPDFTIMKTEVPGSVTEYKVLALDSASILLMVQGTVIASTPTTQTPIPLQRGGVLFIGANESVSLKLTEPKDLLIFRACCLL

[23] = viability loss of HMLE_sh_eGFP cells – cell-based, luminescence, counter-screen for HMLE_sh_ECad selective toxicity project, dose response (AID 463074); assay type: functional, Homo sapiens;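 further: HMLE human mammary epithelial cells expressing control shRNA against eGFP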
[24] = molecular target: T4, Tyrosyl-DNA phosphodiesterase 2 (Homo sapiens, UniProt O95551); assay: potency against TDP2 phosphodiesterase activity – biochemical, epi absorbance, IC50, dose response (AID 743297)
T4 sequence (O95551 whole entry): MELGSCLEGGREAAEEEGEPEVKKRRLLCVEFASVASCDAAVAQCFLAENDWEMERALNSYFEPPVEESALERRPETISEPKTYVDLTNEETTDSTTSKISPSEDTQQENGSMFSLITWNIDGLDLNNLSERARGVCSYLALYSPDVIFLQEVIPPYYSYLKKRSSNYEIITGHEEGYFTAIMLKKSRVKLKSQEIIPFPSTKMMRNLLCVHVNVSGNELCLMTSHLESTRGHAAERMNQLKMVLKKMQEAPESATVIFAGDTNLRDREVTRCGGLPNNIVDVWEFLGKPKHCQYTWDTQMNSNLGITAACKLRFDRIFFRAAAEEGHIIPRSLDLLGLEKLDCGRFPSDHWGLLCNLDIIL

[25] = suppression of NO production in INS-1E cells – cell-based, Griess absorbance, dry powder, set 3, dose response (AID 488870); assay type: functional; conditions: Rattus norvegicus

Sequence of Delta-type opioid receptor (P41143 whole entry): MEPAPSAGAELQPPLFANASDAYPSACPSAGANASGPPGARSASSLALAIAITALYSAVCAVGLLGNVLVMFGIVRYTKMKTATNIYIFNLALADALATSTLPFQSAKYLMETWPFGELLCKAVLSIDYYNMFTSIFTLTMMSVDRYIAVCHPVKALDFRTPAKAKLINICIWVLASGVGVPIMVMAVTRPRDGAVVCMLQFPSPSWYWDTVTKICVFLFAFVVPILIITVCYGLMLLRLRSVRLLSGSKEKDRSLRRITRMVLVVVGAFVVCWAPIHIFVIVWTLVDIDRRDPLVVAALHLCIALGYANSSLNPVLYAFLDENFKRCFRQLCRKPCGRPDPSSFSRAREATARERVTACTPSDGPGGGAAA
Sequence of Dual specificity protein phosphatase 3 (P51452 whole entry): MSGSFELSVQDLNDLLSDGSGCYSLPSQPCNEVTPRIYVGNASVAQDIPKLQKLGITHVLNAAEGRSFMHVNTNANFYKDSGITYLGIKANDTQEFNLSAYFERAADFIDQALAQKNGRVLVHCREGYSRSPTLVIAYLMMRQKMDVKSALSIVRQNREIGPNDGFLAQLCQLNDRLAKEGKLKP
Sequence of Mu-type opioid receptor (P35372 whole entry): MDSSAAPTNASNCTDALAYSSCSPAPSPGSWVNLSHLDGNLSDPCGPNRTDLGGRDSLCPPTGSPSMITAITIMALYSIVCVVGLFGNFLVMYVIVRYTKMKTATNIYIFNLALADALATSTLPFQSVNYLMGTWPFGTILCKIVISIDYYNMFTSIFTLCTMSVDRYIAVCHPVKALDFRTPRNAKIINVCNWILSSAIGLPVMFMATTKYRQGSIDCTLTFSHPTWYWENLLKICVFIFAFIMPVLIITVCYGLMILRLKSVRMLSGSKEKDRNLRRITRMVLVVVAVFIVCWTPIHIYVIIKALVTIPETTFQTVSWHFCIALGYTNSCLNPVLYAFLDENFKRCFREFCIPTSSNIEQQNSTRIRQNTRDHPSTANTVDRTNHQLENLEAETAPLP
Sequence of 5-hydroxytryptamine receptor 5A (P47898 whole entry): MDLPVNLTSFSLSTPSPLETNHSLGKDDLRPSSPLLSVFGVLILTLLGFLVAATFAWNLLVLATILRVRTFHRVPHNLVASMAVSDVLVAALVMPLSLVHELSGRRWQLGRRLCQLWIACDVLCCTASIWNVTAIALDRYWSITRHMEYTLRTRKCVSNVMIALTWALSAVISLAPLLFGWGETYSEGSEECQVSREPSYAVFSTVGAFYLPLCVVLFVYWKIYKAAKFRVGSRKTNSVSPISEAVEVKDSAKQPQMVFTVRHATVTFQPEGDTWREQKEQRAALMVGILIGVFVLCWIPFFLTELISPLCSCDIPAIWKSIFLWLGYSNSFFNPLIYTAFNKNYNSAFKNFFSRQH

COc1ccc(-c2nnc(Nc3nc4c(F)cccc4s3)o2)cc1
IC50 [1]: 3.71 µM (active)

CC(=O)N1CCc2cc(NC(=O)c3ccc([N+](=O)[O-])o3)ccc21
IC50 (Jurkat [2]): 49.5 µM (inactive)
IC50 (HEK293 [3]): > 80 µM (inactive)
IC50 (HEK293 [4]): 50.5 µM (inactive)

OCC1(CCc2ccccc2)CCN(Cc2cccn2-c2cccnc2)CC1
EC50 [5]: 0.149 µM (active)
EC50 [6]: > 92.5 µM (inactive)
EC50 (Mu-type opioid receptor): 52.6 µM (inactive)
EC50 [7]: > 92.5 µM (inactive)

COc1ccc2cc3c(N)nn(C(=O)c4ccccc4Cl)c3nc2c1
EC50 [8]: < 0.1 µM (active)
EC50 [9]: 1.43 µM (active)
EC50 (cells [10]): 0.736 µM (active)
EC50 [11]: < 0.1 µM (active)
AC50 [12]: 47.8 µM (active)
EC50 [13]: > 12 µM (not active)
EC50 [14]: 9.14 µM (active)

CCOc1ccc(-c2nc(CSCC(=O)NCCOC)c(C)o2)cc1
IC50 (HEK293 [3]): > 80 µM (inactive)
IC50 (HEK293 [15]): > 80 µM (inactive)
IC50 (Jurkat [16]): > 80 µM (inactive)

CCCCOc1ccc(C(=O)Nc2ccc(N3CCN(C)CC3)cc2)cc1
EC50 (cells [17]): > 29.9 µM (inactive)
IC50 [18]: > 29.9 µM (inactive)
IC50 (Vero): 24.8 µM (active)
EC50 [19]: 10.2 µM (inactive)
IC50 (cells [20]): > 29.9 µM (inactive)

Oc1c(/C=N/c2cccc3nsnc23)ccc2ccccc12
AC50 [21]: 23.7 µM (active)
IC50 [22]: > 50 µM (not active)
AC50 [23]: 29.4 µM (active)
IC50 [24]: 80.5 µM (inactive)

COc1ccc(NC(=O)N(C)C[C@@H]2Oc3c(NC(=O)Nc4cccc5ccccc45)cccc3C(=O)N([C@@H](C)CO)C[C@H]2C)cc1
AC50 [25]: 43.7 µM (active)
